Target: T1, FXR (Homo sapiens, UniProt Q96RI1)
T1 construct: expressed in transfected cells; host or cells: HepG2
T1 sequence (Q96RI1 1-486): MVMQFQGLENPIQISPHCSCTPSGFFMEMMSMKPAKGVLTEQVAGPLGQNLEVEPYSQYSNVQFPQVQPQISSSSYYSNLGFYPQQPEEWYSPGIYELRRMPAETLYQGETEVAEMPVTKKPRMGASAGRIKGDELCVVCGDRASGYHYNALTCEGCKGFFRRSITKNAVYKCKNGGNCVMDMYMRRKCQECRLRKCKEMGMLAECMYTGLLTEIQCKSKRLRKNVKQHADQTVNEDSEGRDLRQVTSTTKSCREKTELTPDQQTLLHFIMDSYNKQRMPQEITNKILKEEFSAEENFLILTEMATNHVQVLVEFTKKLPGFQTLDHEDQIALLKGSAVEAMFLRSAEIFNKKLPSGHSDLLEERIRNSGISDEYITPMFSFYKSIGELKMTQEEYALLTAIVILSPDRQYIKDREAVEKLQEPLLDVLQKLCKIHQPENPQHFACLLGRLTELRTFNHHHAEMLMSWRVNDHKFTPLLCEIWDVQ
T1 sequence (P19793 1-462 partner): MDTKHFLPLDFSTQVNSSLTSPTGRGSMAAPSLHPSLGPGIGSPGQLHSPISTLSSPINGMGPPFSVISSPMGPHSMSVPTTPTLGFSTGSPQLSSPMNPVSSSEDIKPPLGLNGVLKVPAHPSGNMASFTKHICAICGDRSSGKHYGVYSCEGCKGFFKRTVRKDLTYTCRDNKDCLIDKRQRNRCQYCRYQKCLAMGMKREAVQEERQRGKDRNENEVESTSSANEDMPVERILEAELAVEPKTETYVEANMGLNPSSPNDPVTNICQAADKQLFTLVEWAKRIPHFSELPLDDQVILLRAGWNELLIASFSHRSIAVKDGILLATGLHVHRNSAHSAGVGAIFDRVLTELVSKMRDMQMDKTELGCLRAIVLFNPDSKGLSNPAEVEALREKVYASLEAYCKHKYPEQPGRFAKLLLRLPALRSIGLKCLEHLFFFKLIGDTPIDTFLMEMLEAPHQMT
Assay: FXR transactivation (FXR/RXR, hsp27 IR1-luciferase) in HepG2 cells
Type: cell-based
Method: On day 0, HepG2 were seeded at 7.5 × 10^4 cells/well in a 24-well plate and maintained at 37°C and 5% CO2 in E-MEM supplemented with 10% FBS, 1% glutamine, and 1% penicillin/streptomycin. On day 1, cells were transiently transfected with the reporter plasmid pGL4.47[luc2P/SIE/Hygro] (200 ng) (CAT#: E4041 Promega, Madison, WI, USA), a vector encoding the hLIFR (CAT# RC226327) (100 ng) and CD130 (IL6ST) (100 ng) (CAT#: RC215123, OriGene Technologies, Inc. Rockville, MD, USA), and finally a vector encoding the human RENILLA luciferase gene (pGL4.70) (100 ng) (Promega, Madison, WI, USA). On day 2, cells were exposed to the cytokine LIF (10 ng/mL) alone or in combination with BAR502 (from 0.1 to 20 μM). […] For FXR mediated transactivation, HepG2 cells were plated at 7.5 × 10^4 cells/well in a 24 well plate. Cells were transfected with 200 ng of the reporter vector p(hsp27)-TK-LUC containing a FXR response element (IR1) cloned from the promoter of heat shock protein 27 (hsp27), 100 ng of pSG5-FXR, 100 ng of pSG5-RXR, and 100 ng of pGL4.70 (Promega), a vector encoding the human Renilla gene. To perform STAT3 transactivation, HepG2 were seeded at 7.5× 10^4 cells/well in a 24-well plate. On the day-1, cells were transiently transfected with 200 ng of the reporter plasmid pGL4.47[luc2P/SIE/Hygro] […] Luminescence was measured using a Glomax 20/20 luminometer (Promega, Madison, WI, USA). […]

Row | IC50 (read-out: HepG2 FXR/RXR Antagonism IC50) [µM] | Structure (SMILES) | EC50 (transactivation, agonism, read-out: FXR EC50 Transact) [µM]
1 | – | CC[C@H]1[C@@H](O)C2C3CC[C@H]([C@H](C)CCO)[C@@]3(C)CCC2[C@@]2(C)CC[C@@H](O)C[C@@H]12 (some centres unmarked) [BAR502] | 3 ± 1
2 | 10 | OCc1ccc(-c2ccc(OCc3cc(-c4c(Cl)cccc4Cl)no3)cc2)cc1 [PDL103, (4’-((3-(2,6-dichlorophenyl)isoxazol-5-yl)methoxy)-[1,1’-biphenyl]-4-yl)methanol] | –

Reference: publication PMC10043345, “Discovery of BAR502, as potent steroidal antagonist of leukemia inhibitory factor receptor for the treatment of pancreatic adenocarcinoma” (Frontiers in Oncology, 2023)
